Assay [1] concerns ANGPT2 mRNA. Briefly: Real-time PCR of ANGPT2 mRNA expression in NCl–N87 and AGS cells. The conditions noted are these: 24 h, fMLF 10 nM, antagonists 1 or 2 μM, normalized to GAPDH, untreated = 1. It is filed as cell-based, human. The source says: (§1) It has been reported that FPR1 can exert a tumor suppressor function in human GC by inhibiting angiogenesis and that silencing of the receptor increases the constitutive proangiogenic potential of GC cells. Therefore, we assessed the effect of 24a and 25a on the mRNA expression level and secretion of the proangiogenic factors, the vascular growth factor A (VEGFA), and the angiopoietin 2. […] These effects were more pronounced in NCl–N87 cells and resulted more strongly for 25a than 24a. The values obtained after each treatment were normalized to the expression of GAPDH and compared to the reference value of the two genes in untreated cells, which were set equal to 1 (Fig. 9).
(§2) Fig. 9. Effect of 24a and 25a on mRNA expression of VGFA and ANGPT2 in NCl–N87 and AGS cell lines. Real-time PCR experiments in NCl–N87 and AGS cells with specific primers for VEGFA and ANGPT2 genes. The mRNA expression was normalized on the GAPDH housekeeping gene. Expression analysis was performed after treatment with fMLF (10 nM) and 24a or 25a (1, 2, 5 μM) administrated alone or combining the lowest dose of 24a or 25a with fMLF. All expression values were calculated against the value of untreated PTX-sensitive cells, set equal to 1. Statistical analysis was assessed by comparing the values obtained using single drug treatment to those of corresponding untreated cells and the combined treatments to those of single treatments. The values of untreated PTX-resistant cells were compared with those of untreated PTX-sensitive ones. Data were mean ± SD (n = 3). *p < 0.05, **p < 0.001, ***p < 0.0002, ****p < 0.0001.
(§3) Total RNA was extracted from FPR1 antagonist-treated NCl–N87 and AGS treated cells using the Qiagen RNeasy Mini Kit (Qiagen, Hilden, Germany) following the manufacturer’s instructions. Samples were retro-transcribed using the iScript Advanced cDNA Synthesis Kit (Bio-Rad Laboratories, California, USA). Real-Time-PCRs analyzed cDNA samples for the evaluation of VEGFA and ANGPT2 expression. […] Relative quantification was performed using the ddCT method.
(Real-time PCR tracks product formation cycle by cycle.)

The test system of assay [2] is VEGFA mRNA. Briefly: Real-time PCR of VEGFA mRNA expression in NCl–N87 and AGS cells. It is filed as cell-based, human. The settings on record: 24 h, fMLF 10 nM, antagonists 1 or 2 μM, normalized to GAPDH, untreated = 1.
From the text: as §1, §2, §3

In assay [3] the test system is NCl–N87 cells. Briefly: Muse Ki67 proliferation assay in NCl–N87 cells. Type of assay: cell-based, human. The conditions noted are these: NCl–N87, 5 μM, 24 h; control cells 81.3%.
Experimental: Representative flow cytometry charts reporting percentage of Ki67 negative (blue) and positive (red) cells (panel A). Statistical charts reporting the results from three independent experiments and expressed as means ± SD (panel B). Statistical analysis was assessed by comparing the values obtained using single drug treatment to those of corresponding untreated cells and the combined treatments to those of the single treatments, *p < 0.05; **p < 0.001; ***p < 0.0001.
The Muse Ki67 Proliferation Assay was used with the Guava Muse Cell Analyzer according to manufacturer’s instructions (Luminex Corporation, Austin, USA). Briefly, the cells were stained after fixation and permeabilization procedures by using Hu Ki67 or Hu IgG1 control fluorochrome-conjugated antibodies to distinguish Ki67^+ or Ki67^− cells, respectively. The software provided the percentage of both Ki67(+) and Ki67(−) cells.
In assay [4] the test system is AGS cells. Briefly: MTT viability assay in AGS cells. It is filed as cell-based. The settings on record: Homo sapiens. The source says:
(§4) We decided to study, for the first time, the effect of pharmacological blockade of FPR1 on cell proliferation, cell migration, and angiogenesis in GC by using our antagonists 24a and 25a. We first assessed the expression levels of FPR1 and FPR2 mRNA in four GC cell lines, i.e., HGC27, derived from human gastric carcinoma, KATOIII, AGS, and NCl–N87, derived from human gastric adenocarcinoma. […] We first assessed the effect of compounds 24a and 25a on cell viability in both cell lines at 24, 48, and 72 h using the MTT assay (Table 2).
(§5) AGS and NCl–N87 human gastric cancer cell lines were purchased and authenticated by American Type Culture Collection (Manassas, Virginia, USA). All cell culture components were purchased from Sigma-Aldrich (Milan, Italy) and Celbio s.r.l. (Milano, Italy).
(§6) AGS and NCl–N87 human gastric cancer cell lines were grown in RPMI high glucose supplemented with 10% fetal bovine serum, 2 mM glutamine, 100 U/mL penicillin, 100 μg/mL streptomycin, in a humidified incubator at 37 °C with a 5% CO2 atmosphere.
(§7) Determination of cell growth was performed using the MTT assay at 24h, 48 h, and 72 h. On day 1, 5000 cells/well were seeded into 96-well plates in a volume of 100 μL. On day 2, the test compound was added at different concentrations. In all the experiments, the solvent used to dissolve the drug (ethanol, DMSO) was added in each control to evaluate possible cytotoxicity. After the established incubation time with drugs, MTT (0.5 mg/mL) was added to each well. Following 3 h incubation at 37 °C, the supernatant was removed. The formazan crystals were solubilized using 100 μL of DMSO and the absorbance values at 570 and 630 nm were determined on a Victor 3 microplate reader (PerkinElmer).
On the technique in general: Tetrazolium assays rely on reduction of a dye to a coloured formazan, in cell work by metabolically active cells.

Assay [5] relates to NCl–N87 cells. Kind of assay: MTT viability assay in NCl–N87 cells. It is filed as cell-based. The settings on record: Homo sapiens.
From the text: as §4, §5, §6, §7

The test system of assay [6] is VEGFA. Kind of assay: ELISA of VEGFA secretion in culture medium of NCl–N87 cells. It is filed as cell-based, human. The settings on record: NCl–N87, fMLF 10 nM, 48 h. The protocol: (§8) Secretion of VEGFA and angiopoietin 2 (Ang2) in the culture medium of NCl–N87 and AGS cells was assessed after 48 h of drug treatment using ELISA methods (Fig. 10). […] Once again, the effects were more pronounced in NCl–N87 cells than in AGS, and the effect of 25a was more pronounced as compared to 24a. The co-administration of fMLF (10 nM) partially counteracted the effects.
(§9) Fig. 10. Effect of 24a and 25a on the secretion of VGFA (A) and Ang2 (B) in NCl–N87 and AGS cell lines. The ELISA assays were assessed on cells after 48 h of drug treatment with fMLF (10 nM) and 24a or 25a (1, 5 μM) administrated alone or combining the lowest dose of 24a or 25a with fMLF. The concentration of VEGFA (A) or Ang2 (B) was determined in the medium and normalized for the cell number. The values ± SD, obtained from three independent experiments expressed as pg/mL, were shown in the relative graphs. Statistical analysis was assessed by comparing the values obtained using a single drug treatment to those of corresponding untreated cells and the combined treatments to those of the single treatments. **p < 0.001; ***p < 0.0002; ****p < 0.0001. […]
For orientation: In an ELISA, binding on a coated surface is turned into a signal by an enzyme label.

Assay [7] has as its system angiopoietin 2 (Ang2). Briefly: ELISA of angiopoietin 2 secretion in culture medium of NCl–N87 cells. Type of assay: cell-based, human. The conditions noted are these: NCl–N87, fMLF 10 nM, 48 h. The protocol: as §8, §9
The test system of assay [8] is NCl–N87 cells. Kind of assay: Scratch migration assay in NCl–N87 cells. Type of assay: cell-based, human. The conditions noted are these: NCl–N87, fMLF 10 nM, 24 h incubation. An excerpt: The results are representative of three independent experiments.
Assay [9] deals with VEGFA. Briefly: ELISA of VEGFA secretion in culture medium of AGS cells. It is filed as cell-based, human. The settings on record: fMLF 10 nM, 48 h. How it is done: as §8, §9
Assay [10] has as its system AGS cells. Briefly: Scratch migration assay in AGS cells. The settings on record: fMLF 10 nM, 24 h incubation. It is filed as cell-based, human. The protocol:
The effect of FPR1 blockade on cell migration was assessed using the scratch assay, an easy and well-developed method to measure cell migration in vitro. […] Conversely, 24a and 25a reduced the migration rate in a dose-dependent manner. The effect was more pronounced in NCl–N87 as compared to AGS cells. […] The effect was FPR1-mediated, as it was counterbalanced by co-administration of the agonist fMLF (10 nM).
Fig. 8. Effect of 24a and 25a on cell migration in NCl–N87 and AGS cell lines. Scratch assay assessed on cells treated with fMLF (10 nM) and 24a or 25a (1, 1.5, 2 μM) administrated alone or combining the lowest dose of 24a or 25a with fMLF. The cells were microscopically analyzed at the time of the scratch (T0) and after 24 h (T1). The relative migration rate was calculated by setting the percentage of migration of the control cells at time T1 equal to 1 and comparing the migration percentage of the cells after each drug treatment to this value. Representative original photographs (panel A) and quantitative analysis (panel B) of the cell-free scratch path ares. […] Statistical analysis was assessed by comparing the values obtained using a single drug treatment to those of corresponding untreated cells and the combined treatments to those of the single treatments, *p < 0.05, **p < 0.001, ****p < 0.0001. […]

Assay [11] relates to angiopoietin 2 (Ang2). Kind of assay: ELISA of angiopoietin 2 secretion in culture medium of AGS cells. Type of assay: cell-based, human. The conditions noted are these: fMLF 10 nM, 48 h. The protocol: as §8, §9
[12] abbreviates: 48 h, read-out: AGS EC50 (μM ± S.E.M.) 48 h.
Setting [13] is: read-out: AGS EC50 (μM ± S.E.M.) 24 h, 24 h.
The mark [14] stands for this setting: read-out: AGS EC50 (μM ± S.E.M.) 72 h, 72 h.
[15] abbreviates: 48 h, read-out: NCl–N87 EC50 (μM ± S.E.M.) 48 h.
Where [16] appears, read: read-out: NCl–N87 EC50 (μM ± S.E.M.) 24 h, 24 h.
[17] abbreviates: read-out: NCl–N87 EC50 (μM ± S.E.M.) 72 h, 72 h.

Where two headings read alike, the source gives them in different places.

Broadly, the EC50 is the midpoint of the concentration-response curve. Consider `CCCCCCc1cc2c(=O)c(-c3ccccc3OC)c(C)oc2cc1OC(C)=O` [Compound 24a, 6-Hexyl-3-(2-methoxyphenyl)-2-methyl-4-oxo-4H-chromen-7-yl acetate], for which the “angiopoietin 2 (ANGPT2) mRNA expression” value in [1] is on record as “dose-dependent increase”. In addition, the “VEGFA mRNA expression” value in assay [2] is “dose-dependent increase”. Besides, in assay [3], the “percentage of Ki67(+) cells” value was found to be 73.1%. The EC50 stood at 11 ± 1.91 µM in assay [4] (setting [12]); 24.7 ± 4 µM in [4] (setting [13]); 7.55 ± 1.75 µM in assay [4] (setting [14]); 8.65 ± 0.65 µM in [5] (setting [15]); 32.9 ± 2.95 µM in assay [5] (setting [16]); 11.5 ± 1.2 µM in assay [5] (setting [17]).
Consider `CCCCCCc1cc2c(=O)c(-c3ccccc3OC)c(C(F)(F)F)oc2cc1OC(C)=O` [Compound 25a, 6-Hexyl-3-(2-methoxyphenyl)-4-oxo-2-(trifluoromethyl)-4H-chromen-7-yl acetate], for which the “angiopoietin 2 (ANGPT2) mRNA expression” value in assay [1] is listed as “dose-dependent increase”. Moreover, the “VEGFA mRNA expression” value in [2] is reported as “dose-dependent increase”. The half-maximal effective concentration (EC50) in assay [4] (setting [12]) was determined as 8 ± 0.1 µM; in [4] (setting [13]), 16.7 ± 0.7 µM; in assay [4] (setting [14]) it was 5.45 ± 3.45 µM; in [5] (setting [15]), 10.2 ± 1 µM; in [5] (setting [16]), 13.3 ± 1.88 µM; in [5] (setting [17]) it was 2.65 ± 0.5 µM.
Regarding “N-formyl-methionyl-leucyl-phenylalanine [fMLF]”, the “angiopoietin 2 (ANGPT2) mRNA expression” value in [1] is “reduced expression”. Moreover, the “reduction in the secretion of VEGFA” value in assay [6] is recorded as “approximately 40%”; in assay [9] it was approximately 35%. For the same compound, the “reduction in the secretion of Ang2” value in [7] is listed as approximately 22%; in assay [11], approximately 23%. For the same compound, in assay [2], the “VEGFA mRNA expression” value was “reduced expression”. Moreover, the results for the “increase in cell mobility” value in assay [8] and in [10] were 41% and 32%, respectively.

These data come from paper PMC10822168, “Development of potent isoflavone-based formyl peptide receptor 1 (FPR1) antagonists and their effects in gastric cancer cell models” (European journal of medicinal chemistry, 2023).
